# Measured values: the supplement of paper PMC10307832
# Legend:
# Assay in all cases: relative viability (nuclei count vs DMSO), 5 days (fraction); higher = more cells survive
# [1] = compound: O=C(/C=C/c1cccnc1)NCCCCC1CCN(C(=O)c2ccccc2)CC1 [Daporinad] + CCNC(=O)c1noc(-c2cc(C(C)C)c(O)cc2O)c1-c1ccc(CN2CCOCC2)cc1 [Luminespib] (partner 0.01 µM)
# Summary of the method: (§1)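 Five library-drug doses in √10 steps were combined with a fixed anchor-drug dose, or a single drug was given alone, by pin tool to lung cancer cell lines in 1536-well plates the day after seeding. Nuclei were stained and counted after 5 days. Relative viability is the nuclei count in treated wells over that in vehicle wells, taken as the median of duplicate plates.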
# [2] = compound: COc1cc(Nc2ncc(F)c(Nc3ccc4c(n3)NC(=O)C(C)(C)O4)n2)cc(OC)c1OC [R406] + N=C(N)NC(=N)NCCc1ccccc1 [Phenformin] (partner 250 µM)
# Summary of the method: as §1
# [3] = compound: O=C(/C=C/c1cccnc1)NCCCCC1CCN(C(=O)c2ccccc2)CC1 [Daporinad] + CC(=O)c1c(C)c2cnc(Nc3ccc(N4CCNCC4)cn3)nc2n(C2CCCC2)c1=O [Palbociclib] (partner 0.5 µM)
# Summary of the method: as §1
# [4] = compound: O=C(/C=C/c1cccnc1)NCCCCC1CCN(C(=O)c2ccccc2)CC1 [Daporinad] + COc1cccc2cc(-c3nc([C@H]4CC[C@H](C(=O)O)CC4)n4ncnc(N)c34)[nH]c12 [OSI-027] (partner 0.5 µM)
# Summary of the method: as §1
cell line,measurement,setting,value
UMC-11,relative viability,[1]; first compound 0.0005 µM,1.09
same,relative viability,[1]; first compound 0.001581 µM,1.04
same,relative viability,[1]; first compound 0.005 µM,1.26
same,relative viability,[1]; first compound 0.01581 µM,1.16
same,relative viability,[2]; first compound 0.08 µM,0.356
same,relative viability,[2]; first compound 0.253 µM,0.35
same,relative viability,[2]; first compound 0.8 µM,0.368
same,relative viability,[2]; first compound 2.53 µM,0.28
same,relative viability,[2]; first compound 8 µM,0.19
same,relative viability,[3]; first compound 0.0005 µM,0.385
same,relative viability,[3]; first compound 0.001581 µM,0.338
same,relative viability,[3]; first compound 0.005 µM,0.342
same,relative viability,[3]; first compound 0.01581 µM,0.395
same,relative viability,[4]; first compound 0.0005 µM,0.469
same,relative viability,[4]; first compound 0.001581 µM,0.55
same,relative viability,[4]; first compound 0.005 µM,0.567
same,relative viability,[4]; first compound 0.01581 µM,0.689
